From patent publication US20100003246A1, “Novel heterocyclic compounds and uses therof” (priority 2008, published 2010)

Each molecule was assayed against T1, b-Raf(V600E) (Homo sapiens, UniProt P15056, V600E) (assay: Raf/Mek Amplified Luminescence Proximity Homogeneous Assay (Alpha Screen), b-Raf(V600E)). Details: mutant b-Raf(V600E), read-out: mut-b-RAF (IC50 in uM).
T1 construct: made in house
Type: biochemical
In short: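 Active b-Raf(V600E) (~4 pM) pre-incubated 60 min at room temperature with compound and kinase-dead biotinylated Mek (~10 nM) in Tris pH 7.5, MgCl2, BSA, DTT; ATP-started reaction ran 3 h, EDTA-stopped. Phospho-MEK detected by anti-p-MEK AlphaScreen luminescence; IC50 by non-linear regression.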

T1 sequence (P15056 whole entry V600E): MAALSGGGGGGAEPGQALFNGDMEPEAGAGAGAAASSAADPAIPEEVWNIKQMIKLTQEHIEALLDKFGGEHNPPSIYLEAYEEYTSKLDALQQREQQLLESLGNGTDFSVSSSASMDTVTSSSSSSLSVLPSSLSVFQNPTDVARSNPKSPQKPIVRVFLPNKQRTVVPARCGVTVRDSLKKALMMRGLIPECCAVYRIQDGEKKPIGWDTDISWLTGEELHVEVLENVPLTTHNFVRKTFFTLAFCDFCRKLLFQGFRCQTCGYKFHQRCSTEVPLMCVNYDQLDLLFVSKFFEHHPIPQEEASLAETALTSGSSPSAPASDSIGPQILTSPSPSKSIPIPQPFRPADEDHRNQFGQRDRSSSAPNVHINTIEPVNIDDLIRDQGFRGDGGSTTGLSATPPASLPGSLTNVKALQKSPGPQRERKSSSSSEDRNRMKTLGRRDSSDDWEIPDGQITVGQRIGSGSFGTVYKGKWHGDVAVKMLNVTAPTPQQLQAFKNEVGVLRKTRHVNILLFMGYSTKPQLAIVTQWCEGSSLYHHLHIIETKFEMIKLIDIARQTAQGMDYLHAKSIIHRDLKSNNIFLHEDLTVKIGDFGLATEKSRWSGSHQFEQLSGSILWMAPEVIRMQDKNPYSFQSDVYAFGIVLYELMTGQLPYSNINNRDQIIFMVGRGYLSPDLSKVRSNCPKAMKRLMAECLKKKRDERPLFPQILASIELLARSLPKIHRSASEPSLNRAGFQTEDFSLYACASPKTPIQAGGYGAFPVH

SMILES | IC50
CCNc1nccc(-c2nc(-c3ccc(F)cc3)[nH]c2-c2cnc(N)c(OC)c2)n1 [Compound 174, 4-(5-(6-amino-5-methoxypyridin-3-yl)-2-(4-fluorophenyl)-1H-imidazol-4-yl)-N-ethylpyrimidin-2-amine] | 0.0023 µM
COc1cc(-c2[nH]c(-c3cccc(C(C)C)c3)nc2-c2ccncc2)cnc1N [Compound 115, 5-(2-(3-isopropylphenyl)-4-(pyridin-4-yl)-1H-imidazol-5-yl)-3-methoxypyridin-2-amine] | 0.003 µM
COc1nc(-c2nc(C(C)(C)C)[nH]c2-c2ccnc(NC[C@H](C)NC(=O)OCC(C)(C)C)n2)c(C)nc1N [Compound 259, (S)-neopentyl 1-(4-(4-(5-amino-6-methoxy-3-methylpyrazin-2-yl)-2-tert-butyl-1H-imidazol-5-yl)pyrimidin-2-ylamino)propan-2-ylcarbamate] | 0.0015 µM
COCC(=O)N1CCC[C@@H](Nc2nccc(-c3nc(-c4ccc(C(F)(F)F)cc4)[nH]c3-c3cnc(N)c(OC)c3)n2)C1 [Compound 97, (R)-1-(3-(4-(5-(6-amino-5-methoxypyridin-3-yl)-2-(4-(trifluoromethyl)phenyl)-1H-imidazol-4-yl)pyrimidin-2-ylamino)piperidin-1-yl)-2-methoxyethanone] | 0.031 µM
COc1cc(-c2nc(-c3ccccc3)[nH]c2-c2ccnc(NC3CC3)n2)cnc1N [Compound 72, 4-(4-(6-amino-5-methoxypyridin-3-yl)-2-phenyl-1H-imidazol-5-yl)-N-cyclopropylpyrimidin-2-amine] | 0.0016 µM
c1ccc(-c2nc(-c3ccncc3)c(-c3cnc4[nH]ncc4c3)[nH]2)cc1 [Compound 49, 5-(2-phenyl-4-(pyridin-4-yl)-1H-imidazol-5-yl)-1H-pyrazolo[3,4-b]pyridine] | 0.0222 µM
COc1cc(-c2nc(C3=CCNCC3)[nH]c2-c2ccncc2)cnc1N [Compound 155, 3-methoxy-5-(5-(pyridin-4-yl)-2-(1,2,3,6-tetrahydropyridin-4-yl)-1H-imidazol-4-yl)pyridin-2-amine] | 0.0162 µM
Nc1n[nH]c2ccc(-c3[nH]c(-c4ccccc4)nc3-c3ccncc3)cc12 [Compound 26, 5-(2-phenyl-4-(pyridin-4-yl)-1H-imidazol-5-yl)-1H-indazol-3-amine] | 0.173 µM
c1ccc(-c2nc(-c3ccncc3)c(-c3ccc4cnoc4c3)[nH]2)cc1 [Compound 34, 6-(2-phenyl-4-(pyridin-4-yl)-1H-imidazol-5-yl)benzo[d]isoxazole] | 0.005 µM
COc1cc(-c2nc(-c3ccccc3)[nH]c2-c2ccnc(N)c2)cnc1N [Compound 55, 5-(5-(2-aminopyridin-4-yl)-2-phenyl-1H-imidazol-4-yl)-3-methoxypyridin-2-amine] | 0.0098 µM

Molecules with a lower IC50, results first:

IC50 | SMILES
0.0003 µM | COc1cc(-c2nc(C(C)(C)C)[nH]c2-c2ccnc(Nc3cccc(OC(F)(F)F)c3)n2)cnc1N [Compound 190, 4-(4-(6-amino-5-methoxypyridin-3-yl)-2-tert-butyl-1H-imidazol-5-yl)-N-(3-(trifluoromethoxy)phenyl) pyrimidin-2-amine]
0.0005 µM | COc1cc(-c2[nH]c(-c3cccc(C)c3)nc2-c2ccncc2)cnc1N [Compound 110, 3-methoxy-5-(4-(pyridin-4-yl)-2-tolyl-1H-imidazol-5-yl)pyridin-2-amine]
0.0007 µM | COc1cc(-c2[nH]c(-c3ccc(F)cc3)nc2-c2ccnc(NCC3CC3)n2)cnc1N [Compound 183, 4-(5-(6-amino-5-methoxypyridin-3-yl)-2-(4-fluorophenyl)-1H-imidazol-4-yl)-N-(cyclopropylmethyl) pyrimidin-2-amine]
0.0012 µM | COc1nc(-c2nc(C(C)(C)C)[nH]c2-c2ccnc(NC[C@H](C)NC(=O)OC(C)C)n2)c(C)nc1N [Compound 257, (S)-isopropyl 1-(4-(4-(5-amino-6-methoxy-3-methylpyrazin-2-yl)-2-tert-butyl-1H-imidazol-5-yl)pyrimidin-2-ylamino)propan-2-ylcarbamate]
